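Five concentrations, 48 hours, 96-well plates. Abbreviation: GI50, concentration required for 50% inhibition of growth.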 Calls of active or inactive are those of the source. Rule as the data show it: active = GI50 up to about 1.1 µM and inactive = higher.
Tests used:
Assay in all cases: growth of human tumour cells (NCI), 48 h
HL-60 = tested on: HL-60
RXF 393 = tested on: RXF 393
U-251 = tested on: U-251
UO-31 = tested on: UO-31
OVCAR-4 = tested on: OVCAR-4
UACC-257 = tested on: UACC-257
HT-29 = tested on: HT-29
KM12 = tested on: KM12
SK-MEL-5 = tested on: SK-MEL-5
LOX IMVI = tested on: LOX IMVI
HOP-62 = tested on: HOP-62
SK-MEL-2 = tested on: SK-MEL-2
HOP-92 = tested on: HOP-92
HCT-116 = tested on: HCT-116
SN12C = tested on: SN12C
SF-295 = tested on: SF-295
A549 = tested on: A549
SF-268 = tested on: SF-268
CCRF-CEM = tested on: CCRF-CEM
NCI-H460 = tested on: NCI-H460

`Nc1[nH]cnc2ncnc1-2` [ADENINE] was tested, and the GI50 (HL-60) was 36.6 µM (inactive), the GI50 (RXF 393) was 30.1 µM (inactive) and the GI50 (U-251) was 108 µM (inactive). The GI50 (UO-31) was 129 µM (inactive), the GI50 (OVCAR-4) was > 126 µM (inactive) and the GI50 (UACC-257) was 200 µM (inactive). The GI50 (HT-29) was > 121 µM (inactive), the GI50 (KM12) was 153 µM (inactive) and the GI50 (SK-MEL-5) was > 96.6 µM (inactive). For the same compound, the GI50 (LOX IMVI) was 140 µM (inactive), the GI50 (HOP-62) was 58.9 µM (inactive) and the GI50 (SK-MEL-2) was > 250 µM (inactive). For the same compound, the GI50 (HOP-92) was 146 µM (inactive), the GI50 (HCT-116) was > 250 µM (inactive) and the GI50 (SN12C) was 96.2 µM (inactive). For the same compound, the GI50 (SF-295) was 108 µM (inactive).
With `Cc1c2c(cc3c1[nH]c1ccccc13)C=NCC2` the GI50 (HL-60) was 5.78 µM (inactive), the GI50 (A549) was 15.2 µM (inactive) and the GI50 (SF-268) was 16.8 µM (inactive). The GI50 (RXF 393) was 6.89 µM (inactive), the GI50 (U-251) was 13.4 µM (inactive) and the GI50 (CCRF-CEM) was 7.48 µM (inactive). For the same compound, the GI50 (UO-31) was 24 µM (inactive), the GI50 (OVCAR-4) was 16.6 µM (inactive) and the GI50 (UACC-257) was 7.83 µM (inactive). The GI50 (HT-29) was 14.2 µM (inactive), the GI50 (KM12) was 8.65 µM (inactive) and the GI50 (SK-MEL-5) was 6.41 µM (inactive). For the same compound, the GI50 (LOX IMVI) was 8.09 µM (inactive), the GI50 (HOP-62) was 31.8 µM (inactive) and the GI50 (SK-MEL-2) was 10.1 µM (inactive). The GI50 (HOP-92) was 3.18 µM (inactive), the GI50 (HCT-116) was 6.34 µM (inactive) and the GI50 (SN12C) was 19 µM (inactive). The GI50 (SF-295) was 11.2 µM (inactive) and the GI50 (NCI-H460) was 8.53 µM (inactive).
In the case of `O=C(O[C@@H](/C=C/c1ccccc1)P1(=O)N(Cc2ccccc2)[C@H]2CCCC[C@@H]2N1Cc1ccccc1)c1ccccc1`, the GI50 (HL-60) is reported as 2.39 µM (inactive), the GI50 (A549) is reported as 3.61 µM (inactive) and the GI50 (SF-268) is reported as 5.5 µM (inactive). The GI50 (RXF 393) was 2 µM (inactive), the GI50 (U-251) was 2.45 µM (inactive) and the GI50 (CCRF-CEM) was 3.03 µM (inactive). For the same compound, the GI50 (UO-31) was 3.01 µM (inactive), the GI50 (OVCAR-4) was 3.59 µM (inactive) and the GI50 (UACC-257) was 2.86 µM (inactive). The GI50 (HT-29) was 3.08 µM (inactive), the GI50 (KM12) was 3.41 µM (inactive) and the GI50 (SK-MEL-5) was 1.93 µM (inactive). For the same compound, the GI50 (LOX IMVI) was 3.54 µM (inactive), the GI50 (HOP-62) was 2.82 µM (inactive) and the GI50 (SK-MEL-2) was 1.85 µM (inactive). The GI50 (HOP-92) was 2.86 µM (inactive), the GI50 (HCT-116) was 3.02 µM (inactive) and the GI50 (SN12C) was 2.53 µM (inactive). The GI50 (SF-295) was 3.15 µM (inactive) and the GI50 (NCI-H460) was 2.01 µM (inactive).
`Nc1nc(SCCNC(=O)CCc2ccc(O)c(I)c2)nc2c1ncn2C1OC(CO)C(O)C1O` (stereo not drawn) was tested, and the GI50 (HL-60) was > 100 µM (inactive), the GI50 (A549) was > 100 µM (inactive) and the GI50 (SF-268) was > 100 µM (inactive). For the same compound, the GI50 (RXF 393) was > 100 µM (inactive), the GI50 (U-251) was > 100 µM (inactive) and the GI50 (CCRF-CEM) was > 100 µM (inactive). The GI50 (OVCAR-4) was > 100 µM (inactive), the GI50 (UACC-257) was > 100 µM (inactive) and the GI50 (HT-29) was > 100 µM (inactive). For the same compound, the GI50 (KM12) was > 100 µM (inactive), the GI50 (SK-MEL-5) was > 100 µM (inactive) and the GI50 (HOP-62) was > 100 µM (inactive). The GI50 (SK-MEL-2) was > 100 µM (inactive), the GI50 (HOP-92) was > 100 µM (inactive) and the GI50 (HCT-116) was > 100 µM (inactive). For the same compound, the GI50 (SN12C) was > 100 µM (inactive), the GI50 (SF-295) was > 100 µM (inactive) and the GI50 (NCI-H460) was > 100 µM (inactive).
For `CCCCOc1ccc(OCCCCCCCCCC[N+](C)(C)C)cc1`, the GI50 (HL-60) was 0.39 µM (active), the GI50 (A549) was 3.55 µM (inactive) and the GI50 (SF-268) was 3.13 µM (inactive). The GI50 (RXF 393) was 0.796 µM (active), the GI50 (U-251) was 1.91 µM (inactive) and the GI50 (CCRF-CEM) was 1.28 µM (inactive). The GI50 (UO-31) was 8.02 µM (inactive), the GI50 (OVCAR-4) was 2.86 µM (inactive) and the GI50 (UACC-257) was 5.08 µM (inactive). The GI50 (HT-29) was 0.452 µM (active), the GI50 (KM12) was 1.48 µM (inactive) and the GI50 (SK-MEL-5) was 1.91 µM (inactive). For the same compound, the GI50 (LOX IMVI) was 1.53 µM (inactive), the GI50 (HOP-62) was 3.62 µM (inactive) and the GI50 (SK-MEL-2) was 2.01 µM (inactive). For the same compound, the GI50 (HOP-92) was 1.33 µM (inactive), the GI50 (HCT-116) was 2.34 µM (inactive) and the GI50 (SN12C) was 3.62 µM (inactive). For the same compound, the GI50 (SF-295) was 6.17 µM (inactive) and the GI50 (NCI-H460) was 2.54 µM (inactive).
With `CSc1nc(NC2OCC(O)C(O)C2O)c(N)c(=O)[nH]1` (stereo not drawn) the GI50 (HL-60) was > 100 µM (inactive), the GI50 (A549) was > 100 µM (inactive) and the GI50 (SF-268) was > 100 µM (inactive). The GI50 (RXF 393) was > 100 µM (inactive), the GI50 (U-251) was > 100 µM (inactive) and the GI50 (CCRF-CEM) was > 100 µM (inactive). For the same compound, the GI50 (UO-31) was > 100 µM (inactive), the GI50 (OVCAR-4) was > 100 µM (inactive) and the GI50 (UACC-257) was > 100 µM (inactive). For the same compound, the GI50 (HT-29) was > 100 µM (inactive), the GI50 (KM12) was > 100 µM (inactive) and the GI50 (SK-MEL-5) was > 100 µM (inactive). For the same compound, the GI50 (LOX IMVI) was > 100 µM (inactive), the GI50 (HOP-62) was > 100 µM (inactive) and the GI50 (SK-MEL-2) was > 100 µM (inactive). For the same compound, the GI50 (HOP-92) was > 100 µM (inactive), the GI50 (HCT-116) was > 100 µM (inactive) and the GI50 (SN12C) was > 100 µM (inactive). For the same compound, the GI50 (SF-295) was > 100 µM (inactive) and the GI50 (NCI-H460) was > 100 µM (inactive).
For `CC(=O)NC1=C[C@@H]([C@H]2COC(C)(C)O2)OC1=O`, the GI50 (HL-60) was > 100 µM (inactive), the GI50 (A549) was > 100 µM (inactive) and the GI50 (SF-268) was > 100 µM (inactive). The GI50 (RXF 393) was > 100 µM (inactive), the GI50 (U-251) was > 100 µM (inactive) and the GI50 (CCRF-CEM) was > 100 µM (inactive). For the same compound, the GI50 (UO-31) was > 100 µM (inactive), the GI50 (UACC-257) was > 100 µM (inactive) and the GI50 (HT-29) was > 100 µM (inactive). The GI50 (KM12) was > 100 µM (inactive), the GI50 (SK-MEL-5) was > 100 µM (inactive) and the GI50 (LOX IMVI) was > 100 µM (inactive). The GI50 (HOP-62) was > 100 µM (inactive), the GI50 (SK-MEL-2) was > 100 µM (inactive) and the GI50 (HOP-92) was > 100 µM (inactive). The GI50 (HCT-116) was > 100 µM (inactive), the GI50 (SN12C) was > 100 µM (inactive) and the GI50 (SF-295) was > 100 µM (inactive). The GI50 (NCI-H460) was > 100 µM (inactive).

Source: ChEMBL document CHEMBL1201862, “PubChem BioAssay data set” (2004)
